{"source": "patent US9580707B2", "about": "“Peptide antimicrobials” (Wayne State University, priority 2010, dated 2017)", "data": [{"tested_on": "E. coli DH5α", "test": "Induced growth curves of E. coli expressing peptide-PhoA fusions in the periplasm (periplasmic in vivo display)", "type": "cell-based", "conditions": "peptide expressed as PhoA fusion in the periplasm, arabinose induction, OD600", "method": "Numerous periplasmic screens have been performed for the identification of bacteriolytic peptides, encompassing more than 90 million clones. Selected clones have been sequenced and confirmed by induced growth curves, confirming that the disclosed bacteriolytic screen enriches plasmid preparations for peptides that elicit cell lysis. For example, an isolated clone is grown in fresh LB medium to early log phase. Arabinose is added to induced peptide-PhoA fusion expression, and the peptide's effect on growth is observed by measuring the cell density of the culture. Many clones of differing growth phenotypes were analyzed. Bacteriolytic peptides have predominated the extracted clones, which is to be expected given that the bacteriolytic screen was used. Peptides were recovered that had either a bacteriostatic or bactericidal effect and others that have a weakly inhibitory effect as they reduce the rate of E. coli's growth […] and may find use as precursors to actual peptide hits.\nPhenotype definitions: Bacteriolytic: OD600 of culture decreases in value, correlating with a reduction in the concentration of cells. Bactriostatic/bactericidal: OD600 of culture flatlines, correlating with a complete stop in the growth of the cells and constant cell density. Weakly inhibitory OD600<0.7: Replication is slowed but not stopped. Final OD600 as culture enters stationary phase is less than 0.7. Weakly inhibitory OD600>0.7: Similar to the above, only final OD600 exceeds 0.7. Peptides have only a minor effect on growth. Non-inhibitory: No growth effect was observed versus the expression of PhoA with no peptide at its N-terminus.\nAfter replica plating, clones were grown in LB+30 μg/ml kanamycin. When OD600˜0.15, arabinose was added to a final concentration of 0.2%. The OD600 of the culture was then measured every 30 minutes to see the effect of peptide-PhoA fusion expression on the cell. […]", "values": [{"substance": "EOD037 Pro+: EOD037 in which an alanine was replaced with a proline (IRWLPRRWRRTF; Antimicrobial peptide EOD037Pro+)", "antimicrobial activity / growth phenotype after induction": "loss of antimicrobial activity"}, {"substance": "EOD037: inhibitory peptide from the early onset degenerate peptide library (IRWLARRWRRTF; Antimicrobial peptide EOD037)", "antimicrobial activity / growth phenotype after induction": "inhibitory"}, {"substance": "EOD084: non-inhibitory, proline-containing peptide from the early onset degenerate peptide library (FMRLPRWWRRMQ; Antimicrobial peptide EOD084)", "antimicrobial activity / growth phenotype after induction": "non-inhibitory"}]}]}
